According to patent publication EP0299434B1, “High pH recovery of neutral amino acids” (GENENCOR INTERNATIONAL, INC., priority 1987, dated 1989):

Assay: solution pKa (pH at which the solubility versus pH curve changes slope)
Type: physicochemical
Source text: The theoretical pKa of a neutral amino acid is a rigorously defined parameter which is independent of temperature and the presence of other components. In accordance with the present invention, the important pKa is the solution pKa which takes into account the actual characteristics of the solution. Thus, the pKa of the neutral amino acid in the actual solution from which it is desired to precipitate the amino acid must be measured. The "solution pKa" is the pH at which the solubility versus pH curve for the solution in question changes slope. For example, if the log of the concentration at saturation is plotted versus pH, two straight line portions of the curve will be noted. The intersection of these straight line portions when extended is considered to be the solution pKa of this solution under the conditions of the test. The solution pKa will depend on the other components in the solution, for example the base that might be present, the temperature and other factors.

pKa (ion exchange eluate concentrated by reverse osmosis, 37°C, ion exchange eluate concentrated by reverse osmosis (Example 4)): ~8.9
pKa (ion exchange eluate evaporated at 60°C, ion exchange eluate evaporated at 60°C (Example 6)): ~8.2
pKa (ion exchange eluate redissolved with ammonium hydroxide, 30°C, ammonia stripping): 9
pKa (ion exchange eluate redissolved with ammonium hydroxide, 39°C, ammonia stripping): 8.8
pKa (ion exchange eluate redissolved with ammonium hydroxide, 55°C, ammonia stripping): 8.4
pKa (saturation curve of Fig. 1): ~9.2
SMILES: N[C@@H](Cc1c[nH]c2ccccc12)C(=O)O [tryptophan]
